Measured values from PubChem BioAssay AID256 (DTP/NCI, 2004).
Several values for one entry are separate records, joined by “and”; a condition that tells them apart may be missing. Identical values can stand only once. Toxic doses and inconclusive results are not listed. How the source made its calls: active means survival T/C of 150% or more; inactive means T/C below 125% in these data.

System: CD2F1 mice, L1210 leukemia ip, survival T/C
Experiment: NCI In Vivo Anticancer Drug Screen. Data for tumor model L1210 Leukemia (intraperitoneal) in CD2F1 (CDF1) mice
Settings: higher = longer survival
How it was run: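 Implant tumor; dose compound or vehicle; measure endpoint in both groups; report treated divided by control.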

[1] = endpoint: mean survival time, dose: 100.0 mg/kg/injection, schedule: Q01DX009 (ip), vehicle: saline with Tween-80
[2] = endpoint: mean survival time, dose: 100.0 mg/kg/injection, schedule: Q04DX003 (ip), vehicle: saline
[3] = endpoint: mean survival time, dose: 200.0 mg/kg/injection, schedule: Q01DX009 (ip), vehicle: saline with Tween-80
[4] = endpoint: mean survival time, dose: 200.0 mg/kg/injection, schedule: Q04DX003 (ip), vehicle: saline
[5] = endpoint: mean survival time, dose: 400.0 mg/kg/injection, schedule: Q01DX009 (ip), vehicle: saline with Tween-80
[6] = endpoint: mean survival time, dose: 400.0 mg/kg/injection, schedule: Q04DX003 (ip), vehicle: saline
[7] = endpoint: mean survival time, dose: 25.0 mg/kg/injection, schedule: Q01DX009 (ip), vehicle: saline with Tween-80
[8] = endpoint: mean survival time, dose: 50.0 mg/kg/injection, schedule: Q01DX009 (ip), vehicle: saline with Tween-80
[9] = endpoint: mean survival time, dose: 100.0 mg/kg/injection, schedule: Q04DX003 (ip), vehicle: Klucel (hydroxypropylcellulose) (HPC)
[10] = endpoint: mean survival time, dose: 200.0 mg/kg/injection, schedule: Q04DX003 (ip), vehicle: saline with Tween-80
[11] = endpoint: mean survival time, dose: 400.0 mg/kg/injection, schedule: Q04DX003 (ip), vehicle: saline with Tween-80
[12] = endpoint: mean survival time, dose: 12.5 mg/kg/injection, schedule: Q01DX009 (ip), vehicle: saline with Tween-80
[13] = endpoint: mean survival time, dose: 100.0 mg/kg/injection, schedule: Q04DX003 (ip), vehicle: saline with Tween-80
[14] = endpoint: mean survival time, dose: 50.0 mg/kg/injection, schedule: Q01DX009 (ip), vehicle: saline

Measured: T/C

CC(C)N=C1C([O-])=N[N+](C)(C)N1C(C)C
inactive: [1] 106 % of control | [2] 95 % of control | [3] 93 % of control | [4] 98 % of control | [5] 98 % of control | [6] 110 % of control

CCCNc1ccc(S(=O)(=O)c2ccc(N)cc2)cc1
inactive: [7] 95 % of control | [8] 95 % of control | [1] 89 % of control

c1ccc2c3c(ccc2c1)-c1oncc1CC3
inactive: [2] 98 % of control | [4] 91 % of control | [6] 102 % of control

O=c1ccc2nc3cc(Cl)ccc3sc-2c1
inactive: [9] 94 % of control | endpoint: mean survival time, dose: 200.0 mg/kg/injection, schedule: Q04DX003 (ip), vehicle: Klucel (hydroxypropylcellulose) (HPC) 94 % of control | endpoint: mean survival time, dose: 400.0 mg/kg/injection, schedule: Q04DX003 (ip), vehicle: Klucel (hydroxypropylcellulose) (HPC) 94 % of control

COc1cc2c(cc1OC)NC(=O)CC(=O)N2
inactive: [10] 91 % of control | [11] 98 % of control

COc1ccc(N=Nc2sc(N)nc2-c2cccc([N+](=O)[O-])c2)cc1
inactive: endpoint: mean survival time, dose: 100.0 mg/kg/injection, schedule: Q01DX001 (ip), vehicle: saline with Tween-80 93 % of control | endpoint: mean survival time, dose: 200.0 mg/kg/injection, schedule: Q01DX001 (ip), vehicle: saline with Tween-80 90 % of control | endpoint: mean survival time, dose: 400.0 mg/kg/injection, schedule: Q01DX001 (ip), vehicle: saline with Tween-80 97 % of control

CC(=O)N1CCC(Cc2ccccc2)CC1
inactive: [2] 97 % of control | [4] 94 % of control | [6] 95 % of control

CC(C)(C)Nc1ccc([N+](=O)[O-])cc1Cl
inactive: endpoint: mean survival time, dose: 12.5 mg/kg/injection, schedule: Q01DX001 (ip), vehicle: DMSO 89 % of control | endpoint: mean survival time, dose: 25.0 mg/kg/injection, schedule: Q01DX001 (ip), vehicle: DMSO 100 % of control | endpoint: mean survival time, dose: 25.0 mg/kg/injection, schedule: Q04DX003 (ip), vehicle: Klucel (hydroxypropylcellulose) (HPC) 93 % of control | endpoint: mean survival time, dose: 50.0 mg/kg/injection, schedule: Q01DX001 (ip), vehicle: DMSO 103 % of control | endpoint: mean survival time, dose: 50.0 mg/kg/injection, schedule: Q04DX003 (ip), vehicle: Klucel (hydroxypropylcellulose) (HPC) 94 % of control | [9] 91 % of control

OCCN=Cc1c(Cl)ccc(Cl)c1Cl
inactive: [2] 108 % of control | [4] 101 % of control | [6] 104 % of control

NC(CCl)=NCc1ccccn1
inactive: endpoint: mean survival time, dose: 25.0 mg/kg/injection, schedule: Q04DX002 (ip), vehicle: saline 108 % of control | endpoint: mean survival time, dose: 50.0 mg/kg/injection, schedule: Q04DX002 (ip), vehicle: saline 97 % of control | endpoint: mean survival time, dose: 100.0 mg/kg/injection, schedule: Q04DX002 (ip), vehicle: saline 101 % of control

O=P([O-])([O-])O.O=P([O-])([O-])O.O=P([O-])([O-])O.O=P([O-])([O-])O.[Na+].[OH3+].[OH3+].[Pt+2].[Pt+2]
inactive: endpoint: median survival time, dose: 10.0 mg/kg/injection, schedule: Q04DX003 (ip), vehicle: water 102 % of control | endpoint: median survival time, dose: 20.0 mg/kg/injection, schedule: Q04DX003 (ip), vehicle: water 91 % of control | endpoint: median survival time, dose: 30.75 mg/kg/injection, schedule: Q04DX003 (ip), vehicle: water 103 % of control | endpoint: median survival time, dose: 40.0 mg/kg/injection, schedule: Q04DX003 (ip), vehicle: water 98 % of control | endpoint: median survival time, dose: 61.5 mg/kg/injection, schedule: Q04DX003 (ip), vehicle: water 102 % of control | endpoint: median survival time, dose: 80.0 mg/kg/injection, schedule: Q04DX003 (ip), vehicle: water 94 % of control | endpoint: median survival time, dose: 123.0 mg/kg/injection, schedule: Q04DX003 (ip), vehicle: water 104 % of control | endpoint: median survival time, dose: 246.0 mg/kg/injection, schedule: Q04DX003 (ip), vehicle: water 110 % of control

C=CC(=O)NC12CC3CC(CC(C3)C1)C2
inactive: [2] 100 % of control | [4] 101 % of control | [6] 101 % of control

COc1ccc(CCN(C=O)CCc2ccc(OC)c(OC)c2)cc1OC
inactive: endpoint: mean survival time, dose: 12.5 mg/kg/injection, schedule: Q01DX009 (ip), vehicle: other 98 % of control | endpoint: mean survival time, dose: 25.0 mg/kg/injection, schedule: Q01DX009 (ip), vehicle: other 101 % of control | endpoint: mean survival time, dose: 50.0 mg/kg/injection, schedule: Q01DX009 (ip), vehicle: other 93 % of control | endpoint: mean survival time, dose: 100.0 mg/kg/injection, schedule: Q01DX009 (ip), vehicle: other 103 % of control | endpoint: mean survival time, dose: 200.0 mg/kg/injection, schedule: Q01DX009 (ip), vehicle: other 103 % of control

O=S(=O)(c1ccccc1)N1CN2CCN(C2)C1
inactive: [12] 95 % of control and 110 % of control | [7] 97 % of control and 100 % of control | [8] 102 % of control and 106 % of control | [1] 101 % of control and 111 % of control | [3] 117 % of control and 107 % of control | [5] 117 % of control and 105 % of control

CCOC(=O)C1(C(=O)OCC)C(C)CC2Nc3ccccc3C(=O)N21 (stereo not given)
inactive: endpoint: mean survival time, dose: 100.0 mg/kg/injection, schedule: Q01DX001 (ip), vehicle: Klucel (hydroxypropylcellulose) (HPC) 100 % of control | endpoint: mean survival time, dose: 200.0 mg/kg/injection, schedule: Q01DX001 (ip), vehicle: Klucel (hydroxypropylcellulose) (HPC) 96 % of control | endpoint: mean survival time, dose: 400.0 mg/kg/injection, schedule: Q01DX001 (ip), vehicle: Klucel (hydroxypropylcellulose) (HPC) 92 % of control

O=C1CSC(=S)N1/N=C/c1cc(Cl)cc(Cl)c1O
inactive: endpoint: mean survival time, dose: 75.0 mg/kg/injection, schedule: Q01DX001 (ip), vehicle: other 90 % of control | endpoint: mean survival time, dose: 150.0 mg/kg/injection, schedule: Q01DX001 (ip), vehicle: other 102 % of control

CC(=O)OC(CNCC(=O)O)C(Cl)(Cl)Cl (stereo not given)
inactive: [13] 102 % of control | [10] 98 % of control | [11] 98 % of control

CCOP(=O)(OCC)OC(C)C#N (stereo not given)
inactive: endpoint: mean survival time, dose: 12.5 mg/kg/injection, schedule: Q01DX009 (ip), vehicle: saline 97 % of control | endpoint: mean survival time, dose: 25.0 mg/kg/injection, schedule: Q01DX009 (ip), vehicle: saline 97 % of control

CSC(=S)N/N=C/c1ccccc1O
inactive: [12] 95 % of control | endpoint: mean survival time, dose: 12.5 mg/kg/injection, schedule: Q04DX003 (ip), vehicle: saline with Tween-80 100 % of control | [7] 87 % of control | endpoint: mean survival time, dose: 25.0 mg/kg/injection, schedule: Q04DX003 (ip), vehicle: saline with Tween-80 97 % of control | endpoint: mean survival time, dose: 50.0 mg/kg/injection, schedule: Q04DX003 (ip), vehicle: saline with Tween-80 95 % of control

COC(=O)C(NC(=O)OCc1ccccc1)C(=O)OC
inactive: [1] 105 % of control | [3] 107 % of control | [5] 112 % of control

CCCC(CCC)(C(N)=O)C(=O)O
inactive: endpoint: mean survival time, dose: 100.0 mg/kg/injection, schedule: Q01DX001 (ip), vehicle: saline 97 % of control | endpoint: mean survival time, dose: 200.0 mg/kg/injection, schedule: Q01DX001 (ip), vehicle: saline 97 % of control | endpoint: mean survival time, dose: 400.0 mg/kg/injection, schedule: Q01DX001 (ip), vehicle: saline 94 % of control

CNC(=O)Nc1ccccc1OS(=O)(=O)N(C)C
inactive: [13] 97 % of control | [10] 104 % of control | [11] 104 % of control

C1CC[N-]CC1.C1CC[N-]CC1.C1CC[N-]CC1.C1CC[N-]CC1.[Cl][Rh][Cl]
inactive: endpoint: mean survival time, dose: 6.25 mg/kg/injection, schedule: Q04DX003 (ip), vehicle: saline 98 % of control | [14] 90 % of control

O=C(NC1CCC(CC2CCCCC2)CC1)c1ccccc1 (stereo not given)
inactive: [1] 100 % of control | [3] 93 % of control | [5] 114 % of control

Cc1[nH]c2cc([N+](=O)[O-])ccc2c1[N+](=O)[O-]
inactive: endpoint: mean survival time, dose: 75.0 mg/kg/injection, schedule: Q01DX001 (ip), vehicle: saline 97 % of control and 108 % of control | endpoint: mean survival time, dose: 150.0 mg/kg/injection, schedule: Q01DX001 (ip), vehicle: saline 103 % of control and 100 % of control | endpoint: mean survival time, dose: 300.0 mg/kg/injection, schedule: Q01DX001 (ip), vehicle: saline 93 % of control

O=C1CCC(=O)ON=c2ccc(cc2)=NO1
inactive: [14] 98 % of control | endpoint: mean survival time, dose: 100.0 mg/kg/injection, schedule: Q01DX009 (ip), vehicle: saline 102 % of control | endpoint: mean survival time, dose: 200.0 mg/kg/injection, schedule: Q01DX009 (ip), vehicle: saline 90 % of control

Nc1nc(=S)c2[nH]c(-c3ccccc3)nc2[nH]1
inactive: endpoint: mean survival time, dose: 12.5 mg/kg/injection, schedule: Q01DX005 (ip), vehicle: other 96 % of control | endpoint: mean survival time, dose: 25.0 mg/kg/injection, schedule: Q01DX005 (ip), vehicle: other 90 % of control | endpoint: mean survival time, dose: 50.0 mg/kg/injection, schedule: Q01DX005 (ip), vehicle: other 93 % of control | endpoint: mean survival time, dose: 100.0 mg/kg/injection, schedule: Q01DX005 (ip), vehicle: other 93 % of control | endpoint: mean survival time, dose: 200.0 mg/kg/injection, schedule: Q01DX005 (ip), vehicle: other 90 % of control

C/C(=N\O)c1ccc2c3c(ccc([N+](=O)[O-])c13)CC2
inactive: [13] 98 % of control | [10] 98 % of control | [11] 103 % of control
